12 compounds from patent publication US7553862B2, “4-amino-1,5-substituted-1,5-dihydro-imidazol-2-ones” (Hoffmann-La Roche Inc., priority 2006, dated 2009) can be followed below.

For this assay, the target named is T1, mGlyT-1b (Mus musculus, UniProt P28571).
T1 construct: host or cells: Flp-in-CHO
T1 sequence (P28571 1-651 isoform P28571-2): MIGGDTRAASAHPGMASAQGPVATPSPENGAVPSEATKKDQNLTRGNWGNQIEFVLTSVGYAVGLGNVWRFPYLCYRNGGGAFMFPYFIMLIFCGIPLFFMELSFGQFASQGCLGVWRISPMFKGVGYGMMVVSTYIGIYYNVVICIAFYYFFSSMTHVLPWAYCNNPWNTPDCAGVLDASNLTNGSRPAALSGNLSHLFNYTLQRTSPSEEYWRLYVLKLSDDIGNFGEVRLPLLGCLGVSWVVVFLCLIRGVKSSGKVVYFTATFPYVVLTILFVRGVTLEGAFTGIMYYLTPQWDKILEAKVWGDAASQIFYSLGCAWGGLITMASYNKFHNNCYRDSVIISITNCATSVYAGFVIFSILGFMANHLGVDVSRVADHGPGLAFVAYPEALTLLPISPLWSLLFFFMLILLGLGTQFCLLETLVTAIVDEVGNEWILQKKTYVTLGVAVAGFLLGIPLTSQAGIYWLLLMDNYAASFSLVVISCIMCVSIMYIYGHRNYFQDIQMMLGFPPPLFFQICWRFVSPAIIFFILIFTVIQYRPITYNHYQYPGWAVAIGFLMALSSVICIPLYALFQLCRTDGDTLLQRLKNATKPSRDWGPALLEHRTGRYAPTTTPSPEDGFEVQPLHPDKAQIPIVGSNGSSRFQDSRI
As to the kind of experiment: Glycine uptake inhibition assay (mGlyT-1b). It is filed as cell-based. Conditions: [3H]-glycine uptake in Flp-in-CHO cells transfected with mGlyT-1b cDNA; read-out: IC50 (μM) at GlyT-1. Here is the method: DMEM complete medium: Nutrient mixture F-12 (Gibco Life-technologies), fetal bovine serum (FBS) 5%, (Gibco life technologies), Penicillin/Streptomycin1% (Gibco life technologies), Hygromycin 0.6 mg/ml (Gibco life technologies), Glutamine 1 mM Gibco life technologies) Uptake buffer (UB): 150 mM NaCl, 10 mM Hepes-Tris, pH 7.4, 1 mM CaCl2, 2.5 mM KCl, 2.5 mM MgSO4, 10 mM (+) D-glucose.
Flp-in™-CHO (Invitrogen Cat n° R758-07) cells stably transfected with mGlyT1b cDNA.
Glycine Uptake Inhibition Assay (mGlyT-1b)
On day 1 mammalian cells, (Flp-in™-CHO), transfected with mGlyT-1b cDNA, were plated at the density of 40,000 cells/well in complete F-12 medium, without hygromycin in 96-well culture plates. On day 2, the medium was aspirated and the cells were washed twice with uptake buffer (UB). The cells were then incubated for 20 min at 22° C. with either (i) no potential competitor, (ii) 10 mM non-radioactive glycine, (iii) a concentration of a potential inhibitor. A range of concentrations of the potential inhibitor was used to generate data for calculating the concentration of inhibitor resulting in 50% of the effect (e.g. IC50, the concentration of the competitor inhibiting glycine uptake of 50%). A solution was then immediately added containing [^3H]-glycine 60 nM (11-16 Ci/mmol) and 25 μM non-radioactive glycine. The plates were incubated with gentle shaking and the reaction was stopped by aspiration of the mixture and washing (three times) with ice-cold UB. The cells were lysed with scintillation liquid, shaken 3 hours and the radioactivity in the cells was counted using a scintillation counter.

Each structure is given as a SMILES string.

As a reminder, the IC50 is the concentration that gives 50% inhibition. With `O=C1N=C(NCc2ccccc2)C(c2ccccc2)N1c1ccc(Cl)cc1` (racemic) [Example 10, (Rac)-4-benzylamino-1-(4-chloro-phenyl)-5-phenyl-1,5-dihydro-imidazol-2-one], the IC50 was determined as 0.062 µM.

Regarding `O=C1N=C(NCc2ccccc2)C(c2ccccc2)N1c1ccc(Cl)c(Cl)c1` (racemic) [Example 13, Rac-4-benzylamino-1-(3,4-dichloro-phenyl)-5-phenyl-1,5-dihydro-imidazol-2-one], the half-maximal inhibitory concentration (IC50) worked out at 0.076 µM.

As to `Cc1ccc(C2C(NCc3ccccc3)=NC(=O)N2c2ccc(Cl)c(Cl)c2)cc1` (racemic) [Example 24, (Rac)-4-benzylamino-1-(3,4-dichloro-phenyl)-5-p-tolyl-1,5-dihydro-imidazol-2-one], the IC50 stood at 0.04 µM.

On to `Cc1ccc(C2C(NCc3ccccc3)=NC(=O)N2c2ccc(Cl)c(Cl)c2)cc1C` (racemic) [Example 25, Rac-4-benzylamino-1-(3,4-dichloro-phenyl)-5-(3,4-dimethyl-phenyl)-1,5-dihydro-imidazol-2-one], for which the concentration for half-maximal inhibition (IC50) stood at 0.057 µM.

Regarding `O=C1N=C(NCc2ccccc2)C(c2ccc(Cl)cc2)N1c1ccc(Cl)c(Cl)c1` (racemic) [Example 28, (Rac)-4-benzylamino-5-(4-chloro-phenyl)-1-(3,4-dichloro-phenyl)-1,5-dihydro-imidazol-2-one], the half-inhibitory concentration (IC50) stood at 0.035 µM.

Regarding `O=C1N=C(NCc2ccccc2)C(c2ccc(F)cc2)N1c1ccc(Cl)c(Cl)c1` (racemic) [Example 43, (Rac)-4-benzylamino-1-(3,4-dichloro-phenyl)-5-(4-fluoro-phenyl)-1,5-dihydro-imidazol-2-one], the IC50 was determined as 0.03 µM.

As to `O=C1N=C(NCc2ccccc2)C(c2ccc(F)cc2)N1c1ccc(F)c(Cl)c1` (racemic) [Example 44, Rac-4-Benzylamino-1-(3-chloro-4-fluoro-phenyl)-5-(4-fluoro-phenyl)-1,5-dihydro-imidazol-2-one], the IC50 was 0.058 µM.

As for `O=C1N=C(NCc2ccc(F)cc2)C(c2ccccc2)N1c1ccc(Cl)c(Cl)c1` (racemic) [Example 51, Rac-1-(3,4-dichloro-phenyl)-4-(4-fluorobenzylamino)-5-phenyl-1,5-dihydro-imidazol-2-one], the IC50 was determined as 0.007 µM.

Take `CC(C)CCNC1=NC(=O)N(c2ccc(Cl)c(Cl)c2)C1c1ccccc1` (racemic) [Example 53, Rac-1-(3,4-dichloro-phenyl)-4-(3-methyl-butylamino)-5-phenyl-1,5-dihydroimidazol-2-one]: the IC50 stood at 0.082 µM.

In the case of `CCCCCCNC1=NC(=O)N(c2ccc(Cl)c(Cl)c2)C1c1ccccc1` (racemic) [Example 57, (Rac)-1-(3,4-dichloro-phenyl)-4-hexylamino-5-phenyl-1,5-dihydro-imidazol-2-one], the IC50 was 0.077 µM.

With `O=C1N=C(NCC2CCCCC2)C(c2ccccc2)N1c1ccc(Cl)c(Cl)c1` (racemic) [Example 58, (Rac)-4-(cyclohexylmethyl-amino)-1-(3,4-dichloro-phenyl)-5-phenyl-1,5-dihydro-imidazol-2-one], the IC50 was 0.024 µM.

`O=C1N=C(NCc2ccccc2)[C@@H](c2ccccc2)N1c1ccc(Cl)cc1` (single isomer, unassigned) [Example 50, (−)-4-Benzylamino-1-(4-chloro-phenyl)-5-phenyl-1,5-dihydro-imidazol-2-one]: the IC50 turned out to be 0.062 µM.
